Test results reported in PMC8229129, “Local Colonic Administration of a Serine Protease Inhibitor Improves Post-Inflammatory Visceral Hypersensitivity in Rats” (Pharmaceutics, 2021).

Legend:
[1] = test system: visceral hypersensitivity in post-colitis rats; experiment: Visceromotor response (VMR) to colorectal distensions, TNBS-induced post-colitis rat model for visceral hypersensitivity; type: in vivo, Sprague–Dawley rats
Experimental: A well-characterized 2,4,6-trinitrobenzene sulfonic acid (TNBS)-induced post-colitis rat model for visceral hypersensitivity was used in this study. Details on the procedures are given in subsequent paragraphs. After acclimation, an enema containing TNBS was used to induce a mild colitis, whereas control rats received an enema containing saline. The presence and severity of acute colitis were scored colonoscopically 3 days later. Subsequently, a colonoscopy was performed starting from day 10 and repeated every 4 days until complete mucosal healing was observed. Then, electromyographic (EMG) electrodes were implanted in the abdominal musculature of the rat and exteriorized at the scapular region. Three days later, the serine protease inhibitor UAMC-00050 or its vehicle was given intracolonically. Thirty minutes after the single administration of the drug, visceral sensitivity to colorectal distensions and colonic compliance were evaluated. Finally, animals were sacrificed (exsanguination under pentobarbital anesthesia, 45 mg/kg i.p.) and inflammatory parameters (colonoscopy, macroscopy, microscopy, and myeloperoxidase (MPO) activity) were scored to confirm the post-inflammatory state of the animal and to evaluate effects of the compound on mucosal inflammation. Colonic and fecal samples were taken for the assessment of proteolytic activities using selective fluorogenic substrates. Pharmacokinetic experiments were performed in a separate group of rats.
After an overnight fast with free access to water, rats were anesthetized with a mixture of ketamine (35 mg/kg, i.p.) and xylazine (5 mg/kg, i.p.) and placed in a Trendelenburg position. A flexible catheter (18 G, length 4.5 cm) was used to administer a 250 µL TNBS-enema (4 mg in 50% ethanol) or saline in the distal colon of randomized colitis and control rats, respectively, according to previously published protocols. Afterwards, animals were allowed to recover in their own cages with free access to water and food.
(§1) The serine protease inhibitor UAMC-00050 (0.1–1.0–2.5–5.0 mg/kg, dissolved in a volume of 200 µL) or its vehicle (5% DMSO in H2O) was delivered colonically using a flexible catheter (18 G, length 4.5 cm) under short-lasting isoflurane anesthesia (5.0% induction, 1.5% maintenance). To prevent expulsion of the enema, animals were held in a Trendelenburg position for 90 s. Doses for intracolonic administration were based on the doses known to be effective via an i.p. administration and adapted afterwards based on preliminary results.
Contractions of the abdominal musculature in response to isobaric colorectal distensions, a nociceptive reflex known as the visceromotor response (VMR), were used to quantify colonic mechanosensitivity in vivo [24, 28]. To this end, 2 Teflon-coated EMG electrodes (AISI 316 stainless steel, ø 0.125 mm, Advent Research Material Ltd., Oxford, UK) were sutured into the abdominal external oblique muscle, in close proximity to the right inguinal ligament and 5 mm apart. Then, the electrodes were tunneled, subcutaneously towards the base of the neck, exteriorized, and fixated with a plastic cap for future access. Rats were single-housed during their 3-day recovery after the surgical procedure to protect the electrodes and plastic cap from damage.
On the day of the VMR experiment, a lubricated balloon (length 5.0 cm) was introduced into the colorectum of the conscious rat and connected to a barostat, allowing phasic isobaric colonic distensions (Distender Series IIR Barostat, G&J Electronics, Toronto, ON, Canada). EMG electrodes were attached to a data acquisition system and a standardized, pressure-controlled phasic distension protocol was used to expand the balloon (20 s distensions of 10–20–30–40–60 mmHg, 4 min interval). […]

thrombin = test system: thrombin; parameters: method as in PMID 29911328; conditions: in vitro; cited from earlier work
pancreatic elastase = pancreatic elastase (Homo sapiens, UniProt Q9UNI1); experiment: Inhibition of pancreatic elastase by UAMC-00050 (IC50); type: biochemical; conditions: in vitro
pancreatic elastase, sequence (Q9UNI1 19-258): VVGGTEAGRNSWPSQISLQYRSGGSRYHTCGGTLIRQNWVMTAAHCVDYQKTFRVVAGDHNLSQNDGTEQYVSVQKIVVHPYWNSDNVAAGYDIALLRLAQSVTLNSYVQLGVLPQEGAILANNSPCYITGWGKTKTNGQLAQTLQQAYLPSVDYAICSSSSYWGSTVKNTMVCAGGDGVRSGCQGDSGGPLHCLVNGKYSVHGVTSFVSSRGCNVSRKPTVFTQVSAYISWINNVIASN
Experimental: Here, the potency of UAMC-00050 to inhibit two other serine proteases, chymotrypsin and pancreatic elastase, with specificity was determined.

[2] = test system: trypsin-like, chymotrypsin-like, cathepsin G, elastase-like, and kallikrein activities in colon tissue; experiment: Proteolytic activities in colonic tissue of control rats after intracolonic administration; type: in vivo, Sprague–Dawley rats; conditions: 5 mg/kg intracolonic
Experimental: as §1
Trypsin-like, chymotrypsin-like, cathepsin G, elastase-like, and kallikrein activities were determined in colon tissue and fecal samples to profile serine protease activity. […]
Boc-Gln-Ala-Arg-AMC (75 µM) and n-Tosyl-Gly-Pro-Arg-AMC (100 µM) in 50 mM Tris-HCl pH 8.0 containing 120 mM NaCl were used to measure the trypsin-like activity. […] The fluorescence was measured during 20 min at 37 °C on a Tecan Infinite F200 Pro microtiter plate reader. The other activities were assessed in a similar assay, using the substrates mentioned below. Chymotrypsin-like and kallikrein activity were measured with Suc-Ala-Ala-Pro-Phe-AMC (0.45 mM) and H-Pro-Phe-Arg-AMC (0.45 mM), respectively. Elastase-like activity was measured using two assays, one using Suc-Ala-Ala-Pro-Val-AMC as a substrate and the other using Suc-Ala-Ala-Ala-AMC (both 0.45 mM). […]

[3] = Observation of side-effects after administration in pharmacokinetic experiments; type: in vivo; conditions: rats, within 180 min after administration (1 mg/kg i.v. or 5 mg/kg intracolonic)
Experimental: To evaluate the pharmacokinetic properties of UAMC-00050, it was administered in male Sprague–Dawley rats (200–225 g) either colonically (5 mg/kg, in a volume of 200 µL 5% DMSO solution) or intravenously (1 mg/kg in a volume of 200 µL 5% DMSO solution). Plasma samples were collected after 5, 15, 30, 45, 60, 90, 120, and 180 min via the tail vein and stored at −80 °C until analysis.

Q: Which results are given for CC(=O)Nc1ccc(OP(=O)(Oc2ccc(NC(C)=O)cc2)C(Cc2ccc(N=C(N)N)cc2)NC(=O)OCc2ccccc2)cc1.Cl (stereo not shown) [UAMC-00050]?
A: Effect on visceral sensitivity (VMR) ([1]; control rats, 5.0 mg/kg single intracolonic administration): no changes in visceral sensitivity; Effect on visceral sensitivity (VMR) ([1]; post-colitis rats, 0.1 mg/kg single intracolonic administration, 30 min before): attenuated visceral sensitivity at 30 and 40 mmHg; Effect on visceral sensitivity (VMR) ([1]; post-colitis rats, 1.0 mg/kg single intracolonic administration, 30 min before): decreased visceral sensitivity at 20 mmHg; Effect on visceral sensitivity (VMR) ([1]; post-colitis rats, 2.5 mg/kg single intracolonic administration, 30 min before): completely restored sensitivity to normal values; Effect on visceral sensitivity (VMR) ([1]; post-colitis rats, 5.0 mg/kg single intracolonic administration, 30 min before): VMRs that were even lower than those in control rats; Dose required to obtain complete reversal of visceral hypersensitivity ([1]; post-colitis rats, intracolonic): 2.5 mg/kg; inhibition of thrombin (thrombin): efficiently inhibits; IC50 (pancreatic elastase): > 10 µM; Effect on proteolytic activities in colonic tissue [2]: did not alter; Side-effects [3]: No side-effects
